We go through three compounds from patent publication US11760785B2, “Glucose transporter inhibitor-modified insulin for glucose-responsive insulin delivery” (NORTH CAROLINA STATE UNIVERSITY, priority 2017, dated 2023).

Series [1] is classed as physicochemical. An excerpt:
Herein, a new strategy utilizing the in situ living cells as the carrier for insulin was developed. […] In addition, the introduction of water-insoluble inhibitors onto insulin can greatly reduce its water solubility at pH 7.4. After subcutaneously injected, insulin conjugate formed a depot beneath the skin, which can slowly release insulin conjugate into the blood. Then, insulin conjugate reaches the GLUT on living cells, including adipose cells, muscle cells and blood cells, during blood circulation and consequently establishing an insulin pool. Of note, the GLUT pool on living cells can also buffer the high level of insulin in blood in the initial period post-injection and works as the reservoir of insulin to smooth the level of blood insulin. The adsorption of insulin-conjugate to cell membranes is in a dynamic balance with insulin conjugate in interstitial fluid and blood under a normoglycemic state. The insulin conjugate binding on living cell membranes can be released in a glucose-triggered manner under a hyperglycemic state because of the competitive binding from elevated glucose level.
In order to conjugate GLUT inhibitors to […], the GLUT inhibitors were first functionalized with an amino group to facilitate their conjugation to insulin (FIGS. 2 and 3). For forskolin, the introduction of the amino group and alkyl chains can enhance its binding affinity to GLUT. […]

Series [2] concerns glucose transporter (GLUT) on erythrocyte ghosts. In words: binding to erythrocyte ghosts as the model of glucose transporter. From the text:
In order to conjugate GLUT inhibitors to […], the GLUT inhibitors were first functionalized with an amino group to facilitate their conjugation to insulin (FIGS. 2 and 3). […] For inhibitor 2 (In2), an amino group was introduced through Michael addition reaction while maintaining the main structures unchanged. In order to conjugate insulin to forskolin and inhibitor 2, insulin was firstly reacted with Traut's reagent to introduce a thiol group and used directly for conjugating inhibitors, which was also beforehand reacted with SMCC crosslinker.

Series [3] deals with diabetic mice. Description: multiple intraperitoneal glucose tolerance test. Format: in vivo, mouse. The following applies: subcutaneous injection, 400 IU/kg insulin conjugate. An excerpt:
Insulin-F was subcutaneously injected. The dose was set to 400 IU/kg for insulin conjugate. Error bars represent the S.D. of three independent experiments (n=5).
(§1) PBS was used as a control.

Series [4] concerns diabetic mice. The following applies: mouse, in vivo, sc.
Procedure: The in vivo therapeutic efficacy of insulin conjugates was evaluated in type 1 diabetic mouse model induced by STZ. The diabetic mice were assigned to four groups treated with insulin conjugates or native insulin. PBS was used as a control.
The subject of series [5] is type 1 diabetic mouse model induced by STZ. Description: in vivo therapeutic efficacy, blood glucose levels in type 1 diabetic mice. The following applies: STZ type 1 diabetic mice; 300 IU/kg insulin conjugate, 150 IU/kg free insulin.
From the text: PBS was used as a control. The dose was set to 300 IU/kg for insulin conjugate and 150 IU/kg for free insulin to avoid severe hypoglycemia. Error bars represent the S.D. of three independent experiments (n=3).
as §1

Take “insulin-forskolin: insulin conjugated via Traut's reagent thiol and SMCC crosslinker to amino-functionalized forskolin, a GLUT inhibitor”: the “solubility at pH 7.4” value in series [1] is “insoluble”. For the same compound, in series [2] (erythrocyte ghosts as the model of glucose transporter), the “binding to erythrocyte ghost membrane” value is “able to bind to membrane”. In the series with diabetic mice [3], the “blood-glucose-regulating ability in multiple glucose tolerance test” value is given as “long-lasting blood-glucose-regulating ability”. In the series on diabetic mice [4], the “long-lasting behavior by living imaging” value is “long-lasting behavior of insulin-F was further confirmed”.
With `C=C1[C@@H](C)[C@H]2[C@H](Cc3ccccc3)NC(=O)[C@]23OC(=O)/C=C/[C@H](O)CCC[C@@H](C)C/C=C/[C@H]3[C@@H]1O` [cytochalasin B, reference compound], the “inhibition of insulin-F binding on erythrocyte ghosts” value in series [2] (competitor against insulin-F binding, indicates the binding is GLUT specific) is reported as “could be inhibited”.
Consider insulin [free insulin], for which the “time blood glucose level maintained within the normal range (<200 mg/dL)” value in series [5] is “three”.
